Test results reported in US12655116B2, “Substituted isophthalic acid diamides” (Bayer Aktiengesellschaft, priority 2020, dated 2026).

How the values were obtained:
VERPE [1] = assay: Post-emergence herbicidal action against VERPE; type: in vivo, Veronica persica; conditions: 20 g/ha
In short: (§1)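 Spray, one-leaf stage: WP or EC compound in water, 600–800 l/ha, 0.2% wetting agent. Plants held about 3 weeks in the greenhouse, then visually rated in percent of kill compared with untreated controls.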

ECHCG [2] = assay: Post-emergence herbicidal action against ECHCG; type: in vivo, Echinochloa crus-galli
In short: as §1

ABUTH [3] = assay: Post-emergence herbicidal action against ABUTH; type: in vivo, Abutilon theophrasti; conditions: visual assessment about 3 weeks after treatment vs untreated controls
In short: as §1

AVEFA = assay: Pre-emergence herbicidal action against AVEFA; type: in vivo, Avena fatua; conditions: 80 g/ha, pre-emergence
In short: (§2)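 Pre-emergence soil-surface spray of formulated compound (WP or EC; 600 to 800 l/ha; 0.2% wetting agent) over seeds sown in sandy loam. After 3 weeks under greenhouse conditions, damage is estimated visually in percent against untreated plants.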

VIOTR [4] = assay: Pre-emergence herbicidal action against VIOTR; type: in vivo, Viola tricolor
In short: as §2

ALOMY [5] = assay: Pre-emergence herbicidal action against ALOMY; type: in vivo, Alopecurus myosuroides; conditions: 80 g/ha, pre-emergence, scored visually after 3 weeks vs untreated controls (100% = plants have died, 0% = like control plants)
In short: as §2

DIGSA [6] = assay: Pre-emergence herbicidal action against DIGSA; type: in vivo, Digitaria sanguinalis
In short: as §2

MATIN [7] = assay: Post-emergence herbicidal action against MATIN; type: in vivo, Matricaria inodora
In short: as §1

POLCO = assay: Pre-emergence herbicidal action against POLCO; type: in vivo, Polygonum convolvulus; conditions: dosage 80 g/ha
In short: as §2

VERPE [8] = assay: Pre-emergence herbicidal action against VERPE; type: in vivo, Veronica persica
In short: as §2

AMARE [9] = assay: Pre-emergence herbicidal action against AMARE; type: in vivo, Amaranthus retroflexus
In short: as §2

SETVI [10] = assay: Pre-emergence herbicidal action against SETVI; type: in vivo, Setaria viridis
In short: as §2

ALOMY [11] = assay: Post-emergence herbicidal action against ALOMY; type: in vivo, Alopecurus myosuroides; conditions: dosage 20 g/ha, visual assessment about 3 weeks after treatment vs untreated controls
In short: as §1

ABUTH [12] = assay: Pre-emergence herbicidal action against ABUTH; type: in vivo, Abutilon theophrasti; conditions: for Pre-emergence action against ABUTH (herbicidal activity): 80 g/ha, scored visually after 3 weeks vs untreated controls (100% = plants have died, 0% = like control plants); for Pre-emergence action against ABUTH (herbicidal activity in percent): dosage 20 g/ha, scored visually after 3 weeks vs untreated controls, 100% = plants have died, 0% = like control plants
In short: as §2

VIOTR [13] = assay: Post-emergence herbicidal action against VIOTR; type: in vivo, Viola tricolor
In short: as §1

SETVI [14] = assay: Post-emergence herbicidal action against SETVI; type: in vivo, Setaria viridis
In short: as §1

PHBPU [15] = assay: Pre-emergence herbicidal action against PHBPU; type: in vivo, Pharbitis purpurea; conditions: dosage 80 g/ha
In short: as §2

ECHCG [16] = assay: Pre-emergence herbicidal action against ECHCG; type: in vivo, Echinochloa crus-galli; conditions: 80 g/ha
In short: as §2

MATIN [17] = assay: Pre-emergence herbicidal action against MATIN; type: in vivo, Matricaria inodora
In short: as §2

PHBPU [18] = assay: Post-emergence herbicidal action against PHBPU; type: in vivo, Pharbitis purpurea
In short: as §1

DIGSA [19] = assay: Post-emergence herbicidal action against DIGSA; type: in vivo, Digitaria sanguinalis
In short: as §1

AMARE [20] = assay: Post-emergence herbicidal action against AMARE; type: in vivo, Amaranthus retroflexus; conditions: 20 g/ha, visual assessment about 3 weeks after treatment, 100% = plants have died, 0% = like control plants
In short: as §1

[21] = 20 g/ha, scored visually after 3 weeks vs untreated controls, 100% = plants have died, 0% = like control plants
[22] = 80 g/ha, scored visually after 3 weeks vs untreated controls (100% = plants have died, 0% = like control plants)

| Compound | Post-emergence action against VERPE in % (VERPE [1]) [%] | Post-emergence action against ECHCG in % (ECHCG [2]; dosage 20 g/ha) [%] | Post-emergence action against ABUTH in % (ABUTH [3]; dosage 5 g/ha) [%] | Post-emergence action against ABUTH in % (ABUTH [3]; dosage 20 g/ha) [%] | Pre-emergence action against VIOTR in % (VIOTR [4]; dosage 20 g/ha) [%] | Pre-emergence action against VIOTR in % (VIOTR [4]; dosage 80 g/ha) [%] | Pre-emergence action against ALOMY (herbicidal activity) (ALOMY [5]) [%] | Pre-emergence action against DIGSA in % (DIGSA [6]; dosage 20 g/ha) [%] | Pre-emergence action against DIGSA in % (DIGSA [6]; dosage 80 g/ha) [%] | Post-emergence action against MATIN in % (MATIN [7]; dosage 20 g/ha) [%] | Pre-emergence action against POLCO in % (POLCO) [%] | Pre-emergence action against VERPE in % (VERPE [8]; dosage 80 g/ha) [%] | Pre-emergence action against AMARE in % (AMARE [9]; [21]) [%] | Pre-emergence action against AMARE in % (AMARE [9]; [22]) [%] | Pre-emergence action against SETVI in % (SETVI [10]; dosage 80 g/ha) [%] | Post-emergence action against ALOMY in % (ALOMY [11]) [%] | Pre-emergence action against ABUTH (herbicidal activity) (ABUTH [12]) [%] | Pre-emergence action against ABUTH (herbicidal activity in percent) (ABUTH [12]) [%] | Post-emergence action against VIOTR in % (VIOTR [13]; 20 g/ha) [%] | Post-emergence action against SETVI in % (SETVI [14]; dosage 20 g/ha) [%] | other results |
| --- | --- | --- | --- | --- | --- | --- | --- | --- | --- | --- | --- | --- | --- | --- | --- | --- | --- | --- | --- | --- | --- |
| CCn1nnnc1NC(=O)c1ccc(C(F)F)c(C(=O)NC2CC2)c1OC [Example 2-74] | 80 | 80 | 80 | 80 | 100 | 100 | 100 | 100 | 100 | 80 | 80 | 90 | 100 | 100 | 100 | 80 | 100 | 100 | 80 | 90 | Post-emergence action against ECHCG in % (ECHCG [2]; dosage 5 g/ha): 80%; Pre-emergence action against AVEFA in % (AVEFA): 80%; Pre-emergence action against PHBPU in % (PHBPU [15]): 90%; Pre-emergence action against ECHCG in % (ECHCG [16]): 100%; Pre-emergence action against MATIN in % (MATIN [17]; dosage 20 g/ha): 100%; Pre-emergence action against MATIN in % (MATIN [17]; dosage 80 g/ha): 100%; Post-emergence action against PHBPU in % (PHBPU [18]; dosage 20 g/ha): 80% |
| CCn1nnnc1NC(=O)c1ccc(C(F)(F)F)c(C(=O)NC)c1OC [Example 2-56] | 80 | 100 | 100 | 100 | 80 | 90 | 90 | 100 | 100 | 90 | 90 | 100 | 100 | 100 | 100 | 80 | 100 | 100 | 100 | 100 | Post-emergence action against DIGSA in % (DIGSA [19]; 5 g/ha): 90%; Post-emergence action against DIGSA (DIGSA [19]; 20 g/ha): 100%; Post-emergence action against MATIN in % (MATIN [7]; dosage 5 g/ha): 80%; Post-emergence action at 20 g/ha against AMARE in % (AMARE [20]): 100%; Pre-emergence action against VERPE in % (VERPE [8]; dosage 20 g/ha): 80%; Pre-emergence action against SETVI in % (SETVI [10]; dosage 20 g/ha): 100%; Post-emergence action against VIOTR in % (VIOTR [13]; 5 g/ha): 80%; Post-emergence action against SETVI in % (SETVI [14]; dosage 5 g/ha): 80%; Pre-emergence action against PHBPU in % (PHBPU [15]): 80%; Pre-emergence action against ECHCG in % (ECHCG [16]): 90%; Pre-emergence action against MATIN in % (MATIN [17]; dosage 20 g/ha): 90%; Pre-emergence action against MATIN in % (MATIN [17]; dosage 80 g/ha): 100%; Post-emergence action against PHBPU in % (PHBPU [18]; dosage 5 g/ha): 80%; Post-emergence action against PHBPU in % (PHBPU [18]; dosage 20 g/ha): 90% |
